Results taken from US20160264655A1, “Treating cancers with drugs targeting CREB3L1” (Board of Regents, The University of Texas System, priority 2013, published 2016).
Where two headings read alike, the source gives them in different places.

Legend:
CREB3L1 [1] = experiment: CREB3L1 cleavage, immunoblot of membrane and nuclear fractions of Huh7 cells; type: cell-based, human; settings: for amount of the nuclear form of CREB3L1 (cleavage of CREB3L1): Huh7 cells, compound alone
Description: We fractionated human hepatoma Huh7 cells (6) into membrane and nuclear fractions, and used an antibody reacting against the NH2-terminal domain of CREB3L1 (3) to examine the cleavage of CREB3L1 through immunoblot analysis.

Huh7 cells [2] = experiment: Proliferation of Huh7 cells; type: cell-based, human
Experimental: (§1) Inasmuch as CREB3L1 was required for doxorubicin to induce expression of p21, a well-characterized inhibitor of the cell cycle (11), we determined whether CREB3L1 was also required for the drug to inhibit cell proliferation. […] These concentrations of doxorubicin were not enough to trigger apoptosis of Huh7 cells, which became apparent only when the cells were treated with 5 μM of the compound.

CREB3L1 [3] = experiment: CREB3L1 cleavage in wild type and S1P- or S2P-deficient CHO cells; type: cell-based, Chinese Hamster
collagen 1a1 and p21 = experiment: Expression of CREB3L1 target genes in Huh7 cells; type: cell-based, human
Experimental: as §1

Huh7 cells [4] = experiment: Apoptosis of Huh7 cells; type: cell-based, human
Experimental: as §1

MCF-7 cells = experiment: Proliferation of MCF-7 cells with or without CREB3L1 overexpression; type: cell-based, human; settings: for IC50: Homo sapiens, MCF7, 48 h, treated 2 days, read-out: IC50 for doxorubicin; for proliferation (cell counting, cellular DNA content): 15 nM for 6 days
Experimental: (§2) If proteolytic activation of CREB3L1 is required for doxorubicin to inhibit cell proliferation, then the amount of CREB3L1 expressed in cancer cells may determine their sensitivity to doxorubicin. To test this hypothesis, we analyzed SV589 cells, an immortalized line of human fibroblasts (12), and MCF-7 cells, a line of human breast cancer cells (13). […] In this experiment, cells were treated with doxorubicin for 2 days. To determine the effect of CREB3L1 expression on proliferation of the cells treated with doxorubicin for a longer period of time, we incubated MCF-7 and MCF7/pCREB3L1(H) cells with 15 nM doxorubicin for 6 days.

SV589 cells = experiment: Growth inhibition of SV589 cells; type: cell-based, human; settings: two siRNA duplexes
Experimental: as §2

histone γH2AX = experiment: DNA breaks, histone γH2AX marker; type: cell-based
ceramide synthesis = experiment: Ceramide synthesis, tritium-labeled palmitate incorporation in Huh7 cells; type: cell-based, human
Description: RIP of membrane-bound transcription factors is known to be a signal transduction pathway that transfers signals from the ER to nucleus (5). […] Daunorubicin, a chemotherapeutic drug derived from doxorubicin, was reported to induce de novo synthesis of ceramide (15).

human kidney tumor = experiment: Xenograft of human kidney tumors in mice; type: in vivo
MCF7 = MCF7 xenograft in athymic nude mice; type: in vivo; settings: MCF7 overexpressing CREB3L1 vs without overexpression
Experimental: In particular, the relationship between CREB3L1 expression and doxorubicin sensitivity is confirmed in a study of 45 lines of breast cancer cells from ATCC Breast Cancer Cell Panel. […] The relationship between CERB3L1 expression and doxorubicin sensitivity is also confirmed in vivo by injection of MCF7 with or without overexpression of CREB3L1 into athymic nude mice. These mice are then treated with different doses of doxorubicin, confirming that the dose of doxorubicin required to shrink tumors produced from MCF7 cells overexpressing CREB3L1 are lower than those required to shrink tumors generated from those without the overexpression.

[5] = patients treated with the drug; cited from earlier work
cell growth = experiment: Requirement of CREB3L1 for inhibition of cell growth; type: cell-based
Description: We then determined the relationship between doxorubicin-induced cleavage of CREB3L1 and DNA breaks caused by inhibition of topoisomerase. […] However, this effect was unaffected by knockdown of CREB3L1 expression.

[6] = Huh7 cells with CREB3L1 knockdown

Molecule: CCCCCCCCCCCCC/C=C/[C@@H](O)[C@H](CO)NC(=O)CCCCC [C6-ceramide]
- amount of the nuclear form of CREB3L1 (cleavage of CREB3L1) (CREB3L1 [1]): stimulated CREB3L1 cleavage
- inhibition of cell proliferation after CREB3L1 knockdown (Huh7 cells [2]; [6]): completely abolished the ability of C6-ceramide to inhibit cell proliferation

Molecule: CCCCCCC(=O)CCCCCC/C=C/C[C@@H](O)[C@H](O)[C@@](N)(CO)C(=O)O [Myriocin]
- inhibition of doxorubicin-induced cleavage of CREB3L1 (CREB3L1 [1]; co-treatment with doxorubicin): inhibited doxorubicin-induced cleavage of CREB3L1 in a dose-dependent manner
- effect of co-treatment on cell sensitivity to doxorubicin (Huh7 cells [2]; co-treatment with doxorubicin): rendered the cells more resistant to doxorubicin

Molecule: COc1cccc2c1C(=O)c1c(O)c3c(c(O)c1C2=O)C[C@@](O)(C(=O)CO)C[C@@H]3O[C@H]1C[C@H](N)[C@H](O)[C@H](C)O1 [doxorubicin, Doxorubicin]
- amount of the nuclear form of CREB3L1 (cleavage of CREB3L1) (CREB3L1 [1]): markedly raised the amount of the nuclear form of CREB3L1
- cleavage of CREB3L1 to the nuclear form (CREB3L1 [3]; mutant CHO cells deficient in either S1P or S2P): failed to produce the nuclear form of CREB3L1
- cleavage of CREB3L1 to the nuclear form (CREB3L1 [3]; wild type CHO cells): stimulated cleavage of CREB3L1
- induction of collagen 1a1 and p21 (collagen 1a1 and p21; Huh7-shCREB3L1 cells): markedly blunted
- expression of collagen 1a1 and p21 (collagen 1a1 and p21; Huh7-shControl cells): induced the expression of collagen 1a1 and p21
- concentration that blocks proliferation (Huh7 cells [2]; Huh7-shCREB3L1 cells): > 500 nM
- concentration at which apoptosis became apparent (Huh7 cells [4]): 5 µM
- IC50 (MCF-7 cells; MCF7/pCREB3L1(H), 300-fold CREB3L1 overexpression): ~1 nM
- IC50 (MCF-7 cells; MCF7/pCREB3L1(L), 8-fold CREB3L1 overexpression): 10 nM
- IC50 (MCF-7 cells; parental MCF-7 cells): 500 nM
- proliferation (cell counting, cellular DNA content) (MCF-7 cells; MCF7/pCREB3L1(H) cells): markedly blocked proliferation
- proliferation (cell counting, cellular DNA content) (MCF-7 cells; MCF-7 cells): did not affect proliferation
- effect of CREB3L1 siRNA knockdown on sensitivity (SV589 cells): more resistant
- DNA breaks (histone γH2AX) (histone γH2AX): induced appearance of histone γH2AX
- tritium-labeled palmitate incorporated into ceramide (ceramide synthesis): increased the amount of tritium-labeled palmitate incorporated into ceramide
- effect compared with rapamycin (human kidney tumor; tumors expressing CREB3L1): better than rapamycin
- tumor response (human kidney tumor; tumors expressing CREB3L1, dose about 7 times lower than clinical): profoundly inhibited
- tumor response (human kidney tumor; tumors without CREB3L1 expression, dose about 7 times lower than clinical): did not respond
- doxorubicin sensitivity of kidney tumors (human kidney tumor; tumors without vs with CREB3L1 by 10H1 staining, day 3 to 21): much less doxorubicin sensitivity
- dose required to shrink tumors (MCF7): lower
- clinically relevant concentration in the serum of patients [5]: < 1 µM

Molecule: COc1cc([C@@H]2c3cc4c(cc3[C@@H](O[C@@H]3O[C@@H]5CO[C@@H](C)O[C@H]5[C@H](O)[C@H]3O)[C@H]3COC(=O)[C@H]23)OCO4)cc(OC)c1O [etoposide]
- amount of the nuclear form of CREB3L1 (cleavage of CREB3L1) (CREB3L1 [1]): failed to induce cleavage of CREB3L1
- effect of CREB3L1 knockdown on resistance (Huh7 cells [2]; [6]): did not increase their resistance
- effect of CREB3L1 overexpression on sensitivity (MCF-7 cells; MCF7 cells overexpressing CREB3L1): did not increase their sensitivity

Molecule: CC(=O)O[C@H]1C(=O)[C@@]2(C)[C@H]([C@H](OC(=O)c3ccccc3)[C@]3(O)C[C@H](OC(=O)[C@H](O)[C@@H](NC(=O)c4ccccc4)c4ccccc4)C(C)=C1C3(C)C)[C@]1(OC(C)=O)CO[C@@H]1C[C@@H]2O [paclitaxel]
- requirement of CREB3L1 to inhibit cell growth (cell growth): not required

Molecule: bleomycin
- requirement of CREB3L1 to inhibit cell growth (cell growth): not required
